Experimental data reported in patent US20050009889A1 (priority 2002, published 2005).
Where two headings read alike, the source gives them in different places. Marks after values point to notes of the source that are not given here.

How the values were obtained:
Format in all cases: in vivo
[1] = tested on: Erysiphe graminis f. sp. tritici; experiment: Test A: preventive control of wheat powdery mildew on wheat seedlings; settings: wheat seedlings sprayed to run-off, inoculated next day, rated after 7 days; concentration not given
From the text: (§1) General protocol for preparing test suspensions: Test compounds are first dissolved in acetone in an amount equal to 3% of the final volume and then suspended at the desired concentration (in ppm) in acetone and purified water (50/50 mix) containing 250 ppm of the surfactant Trem® 014 (polyhydric alcohol esters). The resulting test suspensions are then used in the following tests. Spraying a 200 ppm test suspension to the point of run-off on the test plants is the equivalent of a rate of 500 g/ha.
The test suspension was sprayed to the point of run-off on wheat seedlings. The following day the seedlings were inoculated with a spore dust of Erysiphe graminis f. sp. tritici, (the causal agent of wheat powdery mildew) and incubated in a growth chamber at 20° C. for 7 days, after which disease ratings were made.

[2] = tested on: Plasmopara viticola; experiment: Test G: curative control of grape downy mildew on grape seedlings
From the text: as §1
Grape seedlings are inoculated with a spore suspension of Plasmopara viticola (the casual agent of grape downy mildew) and incubated in a saturated atmosphere at 20° C. for 24 h. The next day, test suspension is sprayed to the point of run-off and the treated plants are moved to a growth chamber at 20° C. for 6 days, and then incubated in a saturated atmosphere at 20° C. for 24 h, after which disease ratings are made.

[3] = tested on: Puccinia recondita; experiment: Test B: preventive control of wheat leaf rust on wheat seedlings; settings: wheat seedlings sprayed to run-off, inoculated next day; concentration not given
From the text: as §1
(§2) The test suspension was sprayed to the point of run-off on wheat seedlings. The following day the seedlings were inoculated with a spore suspension of Puccinia recondita (the causal agent of wheat leaf rust) and incubated in a saturated atmosphere at 20° C. for 24 h, and then moved to a growth chamber at 20° C. for 6 days, after which disease ratings were made.

[4] = tested on: Plasmopara viticola; experiment: Test E: preventive control of grape downy mildew on grape seedlings
From the text: as §1
as §2, with “grape” for “wheat”, “Plasmopara viticola” for “Puccinia recondita”, “grape downy mildew)” for “wheat leaf rust)”, “h,” for “h, and then”, “days, and then incubated in a saturated atmosphere at 20° C. for 24 h,” for “days,”

[5] = tested on: Phytophthora infestans; settings: tomato seedlings sprayed to run-off, inoculated next day; concentration not given
[6] = tested on: Pyricularia oryzae; settings: rice seedlings sprayed to run-off, inoculated next day; concentration not given
[7] = tested on: Phytophthora infestans
[8] = grape seedlings inoculated, sprayed next day (curative), concentration not given
[9] = grape seedlings sprayed to run-off, inoculated next day, concentration not given

Cc1nc(C(F)(F)F)ccc1C(=O)NCc1ncc(C(F)(F)F)cc1Cl [Compound 14]
Test A disease control rating (100 = 100% disease control, 0 = no control) [1]: 0%
Test G disease control rating (100 = 100% disease control, 0 = no control) [2, 8]: 8%
Test B disease control rating (100 = 100% disease control, 0 = no control) [3]: 28%
Test E disease control rating (100 = 100% disease control, 0 = no control) [4, 9]: 8%
Test D disease control rating (100 = 100% disease control, 0 = no control) [5]: 25%
Test C disease control rating (100 = 100% disease control, 0 = no control) [6]: 87%

O=C(NCc1ncc(C(F)(F)F)cc1Cl)c1cccnc1O [Compound 8]
Test A disease control rating (100 = 100% disease control, 0 = no control) [1]: 0%
Test G disease control rating (100 = 100% disease control, 0 = no control) [2, 8]: 8%
Test B disease control rating (100 = 100% disease control, 0 = no control) [3]: 9%
Test E disease control rating (100 = 100% disease control, 0 = no control) [4, 9]: 8%
Test D disease control rating (100 = 100% disease control, 0 = no control) [5]: 7%
Test C disease control rating (100 = 100% disease control, 0 = no control) [6]: 0%

O=C(NCc1ncc(C(F)(F)F)cc1Cl)c1cncc(Br)c1 [Compound 7]
Test A disease control rating (100 = 100% disease control, 0 = no control) [1]: 0%
Test G disease control rating (100 = 100% disease control, 0 = no control) [2, 8]: 0%
Test B disease control rating (100 = 100% disease control, 0 = no control) [3]: 9%
Test E disease control rating (100 = 100% disease control, 0 = no control) [4, 9]: 0%
Test D disease control rating (100 = 100% disease control, 0 = no control) [5]: 16%
Test C disease control rating (100 = 100% disease control, 0 = no control) [6]: 74%

CC(NC(=O)c1c(Cl)ccnc1Cl)c1ncc(C(F)(F)F)cc1Cl (single isomer, unassigned; (-)) [Compound 23, (−)-2,4-Dichloro-N-[-1-[3-chloro-5-(trifluoromethyl)-2-pyridinyl]ethyl]-3-pyridinecarboxamide]
Test F disease control rating (100 = 100% disease control, 0 = no control) ([7]; curative, 100 ppm on potato seedlings): 65# %
Test G disease control rating (100 = 100% disease control, 0 = no control) ([2]; grape seedlings, curative, 20 ppm): 0** %
Test E disease control rating (100 = 100% disease control, 0 = no control) ([4]; grape seedlings, preventive, 100 ppm (footnote *)): 69* %

Cc1ccc(C(=O)NCc2ncc(C(F)(F)F)cc2Cl)c(Cl)n1 [Compound 11]
Test A disease control rating (100 = 100% disease control, 0 = no control) [1]: 0%
Test F disease control rating (100 = 100% disease control, 0 = no control) ([7]; seedlings inoculated, sprayed next day (curative), concentration not given): 0%
Test G disease control rating (100 = 100% disease control, 0 = no control) [2, 8]: 99%
Test B disease control rating (100 = 100% disease control, 0 = no control) [3]: 19%
Test E disease control rating (100 = 100% disease control, 0 = no control) [4, 9]: 98%
Test D disease control rating (100 = 100% disease control, 0 = no control) [5]: 100%
Test C disease control rating (100 = 100% disease control, 0 = no control) [6]: 90%

COc1ncccc1C(=O)NCc1ncc(C(F)(F)F)cc1Cl [Compound 9]
Test A disease control rating (100 = 100% disease control, 0 = no control) [1]: 0%
Test G disease control rating (100 = 100% disease control, 0 = no control) [2, 8]: 24%
Test B disease control rating (100 = 100% disease control, 0 = no control) [3]: 19%
Test E disease control rating (100 = 100% disease control, 0 = no control) [4, 9]: 24%
Test D disease control rating (100 = 100% disease control, 0 = no control) [5]: 7%
Test C disease control rating (100 = 100% disease control, 0 = no control) [6]: 0%

Nc1ncccc1C(=O)NCc1ncc(C(F)(F)F)cc1Cl [Compound 6]
Test A disease control rating (100 = 100% disease control, 0 = no control) [1]: 0%
Test G disease control rating (100 = 100% disease control, 0 = no control) [2, 8]: 8%
Test B disease control rating (100 = 100% disease control, 0 = no control) [3]: 28%
Test E disease control rating (100 = 100% disease control, 0 = no control) [4, 9]: 0%
Test D disease control rating (100 = 100% disease control, 0 = no control) [5]: 7%
Test C disease control rating (100 = 100% disease control, 0 = no control) [6]: 0%

O=C(NCc1ncc(C(F)(F)F)cc1Cl)c1ccc(C(F)(F)F)nc1Br [Compound 12]
Test A disease control rating (100 = 100% disease control, 0 = no control) [1]: 0%
Test G disease control rating (100 = 100% disease control, 0 = no control) [2, 8]: 0%
Test B disease control rating (100 = 100% disease control, 0 = no control) [3]: 9%
Test E disease control rating (100 = 100% disease control, 0 = no control) [4, 9]: 0%
Test D disease control rating (100 = 100% disease control, 0 = no control) [5]: 32%
Test C disease control rating (100 = 100% disease control, 0 = no control) [6]: 80%

COc1nc(C(F)(F)F)ccc1C(=O)NCc1ncc(C(F)(F)F)cc1Cl [Compound 16]
Test A disease control rating (100 = 100% disease control, 0 = no control) [1]: 0%
Test G disease control rating (100 = 100% disease control, 0 = no control) [2, 8]: 0%
Test B disease control rating (100 = 100% disease control, 0 = no control) [3]: 0%
Test E disease control rating (100 = 100% disease control, 0 = no control) [4, 9]: 0%
Test D disease control rating (100 = 100% disease control, 0 = no control) [5]: 7%
Test C disease control rating (100 = 100% disease control, 0 = no control) [6]: 0%
